Measured values from the NIST ThermoML archive (doi:10.1016/j.fluid.2013.09.056).
± gives the expanded uncertainty stated by the source.

Details: Liquid, Closed cell (Static) method

Row | Compound | vapor or sublimation pressure (283.15 K) [kPa] | vapor or sublimation pressure (293.15 K) [kPa] | vapor or sublimation pressure (303.15 K) [kPa] | vapor or sublimation pressure (313.15 K) [kPa] | vapor or sublimation pressure (323.15 K) [kPa]
1 | C=C(F)C(F)(F)F [2,3,3,3-tetrafluoro-1-propene] | 436.5 ± 7 | 591 ± 7.1 | 780.5 ± 7.1 | 1015.6 ± 7.2 | 1300.7 ± 7.2
2 | FC(C(F)(F)F)C(F)(F)F [1,1,1,2,3,3,3-heptafluoropropane] | 278.9 ± 7 | 388 ± 7 | 524.5 ± 7 | 699 ± 7.1 | 912.4 ± 7.1
3 | FCC(F)(F)F [1,1,1,2-tetrafluoroethane] | 414 ± 7 | 571.5 ± 7 | 767 ± 7.1 | 1013 ± 7.2 | 1314.7 ± 7.3
4 | CC(F)(F)F [1,1,1-trifluoroethane] | 838.6 ± 7.1 | 1107.9 ± 7.2 | 1435.2 ± 7.3 | 1834 ± 7.5 | 2309.7 ± 7.8
